The subject of series [1] is HUVEC cells. Briefly: [3H]-thymidine incorporation (DNA synthesis). As to conditions: serum, bFGF or VEGF; comparison peptides 10 μM. It is filed as cell-based, human. Here is the method: The ability of parstatin (1-41) to inhibit DNA synthesis of endothelial cells was assessed in thymidine incorporation assays. HUVEC cells were grown until 60-80% confluent in 24-well plates. Cells were treated with indicated peptides in serum-free medium containing either 0.5% BSA, or VEGF, or bFGF, or medium containing 5% FBS, or epidermal growth factor (EGF), or heparin-binging EGF (HB-EGF) for 18 hours. All cells were pulsed with 0.5 μCi/ml [3H]-thymidine (ICN Biomedicals Inc., Irvine Calif.) for additional 6 h. Radioactivity incorporated into DNA was determined in liquid scintillation counter.
(Uptake of a labelled nucleoside into DNA is a usual measure of proliferation.)

In series [2] the test system is HUVEC cells. Put plainly: MTT cell proliferation assay. It is filed as cell-based, human. As to conditions: 10 μM. On the procedure: Cell proliferation was evaluated using a 3-(4,5-[…])-2,5-diphenyltetrazolium bromide (MTT, Sigma-Aldrich, St. Louis, Mo.) assay. Endothelial cells (10,000/well) were seeded in 24-well tissue culture plates and incubated with growth medium for 24 h. Cells were then treated with the vehicle or the indicated peptides in medium containing 5% FBS for 1 to 3 days. After 24, 48, or 72 hours, MTT solution (5 mg/ml) was added to each well and incubated for 3 h at 37° C. The blue formazan crystals were solubilized by addition of DMSO and absorbance at 450 nm was recorded using a 96-well plate reader.
(In general: Formazan colour is commonly taken as a measure of viable cells.)

Series [3] relates to HUVEC cells. Put plainly: Fibrin gel in vitro angiogenesis assay. The format is cell-based, human. As to conditions: VEGF/bFGF-induced, 24 h; other peptides 10 μM. Here is the method:
The ability of endothelial cells to form three-dimensional structures was analyzed using a Fibrin gel in vitro angiogenesis assay kit (Chemicon International Inc. Temecula, Calif.). Fibrin gels were formed in 48-well plates by mixing fibrinogen and thrombin solutions, according to manufacturer instructions. Cells (40,000 cells/well) were then added and cultured in medium containing 2% FBS for 18 h. After the addition of a second layer of fibrin gel, endothelial cells sandwiched within fibrin gels were cultured in serum-free medium containing 0.5% bovine serum albumin (BSA) and the combination of VEGF/bFGF for 24 h. Where indicated, parstatin (1-41) or other indicated peptides were added. Capillary-like network was photographed and measured.

Series [4] has as its system cGMP content of myocardium. Put plainly: myocardial cGMP ELISA after ischemia-reperfusion. The note with it: 1 μg/kg, 120 min reperfusion. The format is in vivo, rat. On the procedure:
To determine whether […] (1-26) protects the heart by a mechanism involving soluble guanylyl cyclase (sGC), rats were treated with ODQ (1 mg/kg, a sGC inhibitor) with or without […] (1-26) (1 μg/kg) prior to ischemia. ODQ abolished the reduction in infarct size caused by […] (1-26), but had no effect alone (FIG. 26A). Tissue accumulation of cGMP was measured after 120 min reperfusion from ischemic and non-ischemic myocardium. In these experiments, the cGMP was measured in the rat hearts by specific ELISA kits according to the manufacturer's instructions (Cayman Chemical, Ann Arbor, Mich.). The hearts (n=6/group) were excised after 120 min reperfusion and immediately frozen in liquid nitrogen, then stored at -80° C. until assayed. Frozen myocardial tissue samples in liquid nitrogen were ground to a fine powder in a stainless-steel mortar. Frozen tissue was dropped into 5-10 volumes (ml of solution/gram of tissue) of 5% trichloroacetic acid (TCA) in water. The samples were homogenized on ice […] using a polytron-type homogenizer. Centrifugation was at 30,000 r.p.m. at room temperature and the supernatant was collected for quantitative immunoassay of cGMP. […] (1-26) treatment group when compared to the control and sham treated groups respectively (FIG. 26B). No difference in cGMP tissue content was observed between the ischemic and non-ischemic zones within the control groups, however, […]
On the technique in general: ELISA stands for enzyme-linked immunosorbent assay.

For series [5], the system named is Akt (Ser473), endothelial NOS (Ser1177). Briefly: immunoblot of phospho-Akt and phospho-eNOS in left ventricle after ischemia-reperfusion. It is filed as in vivo, rat. On the procedure:
To determine whether the cardioprotective effect of parstatin (1-26) is mediated through the PI3K/Akt pathway, rats were treated with wortmannin (15 μg/Kg, a potent and specific PI3K inhibitor) alone or in combination with parstatin fragment 1-26 (1 μg/Kg). Wortmannin abrogated the cardioprotective effects of parstatin (1-26) (FIG. 24B). In addition, the left ventricular free wall tissue was homogenized and immunoblot analysis was performed using an anti-phospho-Akt (Ser473) primary antibody (Cell Signaling Technology, Danvers, Mass.). […] Co-treatment with wortmannin blocked parstastin (1-26)-mediated Akt phorsphorylation (FIG. 24C).
(§1) To determine whether parstatin (1-26) protects the heart by a mechanism involving nitric oxide synthase (NOS), rats were treated with L-NMA (15 μg/Kg, a general NOS inhibitor), with or without parstatin (1-26) (1 μg/Kg) prior to ischemia. […] The role of parstatin (1-26) in endothelial NOS activation was further evaluated by measuring the phosphorylation of Ser1177. In these experiments, the left ventricular free wall tissue was homogenized and immunoblot analysis was performed using an anti-phospho-endothelial NOS (Ser1177) primary antibody (Cell Signaling Technology, Danvers, Mass.). […] In addition, nitrite and nitrate content, a marker of endothelial NOS activity, was measured from both ischemic and non-ischemic tissues. Ischemia and 120 min reperfusion caused an increase in the production of NO in the ischemic tissue from the control group when compared to the sham group (FIG. 25D). […] Pre-ischemic treatment with parstatin (1-26) further increased NO content in the ischemic tissue by an additional 1.4-fold over control values and 2.0-fold over sham treated values.

Series [6] deals with nitric oxide content of myocardium. Briefly: myocardial nitrite and nitrate content after ischemia-reperfusion. It is filed as in vivo, rat. As to conditions: 1 μg/kg pre-ischemic. Here is the method:
as §1

Series [7] has as its system myocardial ischemia-reperfusion injury in Sprague Dawley rats. The note with it: for reduction in infarct size: 1 μg/Kg IV bolus.
Protocol: Parstatin (1-41) was used in an in vivo rat model of cardiac ischemia and reperfusion, and in an in vitro isolated rat heart model of ischemia-reperfusion injury.
For in vivo infarct size studies, rats were anesthetized with pentobarbital sodium (50 mg/Kg) and heparin (1000 IU/Kg) and underwent 30 min of regional ischemia followed by 120 min of reperfusion. Parstatin (1-41) was administered-intravenously over 1 min starting 15 min prior to ischemia, or 15 min after the onset of ischemia, or 10 seconds after the onset of reperfusion in separate series of experiments (n=6/group).
To induce ischemia, ligature was positioned around the left main coronary artery and threaded through a plastic snare to permit reversible occlusion of the coronary artery. Coronary occlusion was induced by clamping the snare onto the heart and reperfusion was achieved by releasing the snare. At the end of reperfusion, the coronary artery was re-occluded and the risk zone was delineated by perfusion of 0.5% Evans' blue into the aortic cannula. Hearts were sectioned and incubated in 1% triphenyltetrazolium chloride in phosphate buffer for 15 min to define white necrotic tissue when fixed in 10% formalin for 24 h. Area at risk (AAR) and infarct-to-risk rations were determined by computerized planimetry using J-Image v.i.6 software (NIH, Bethesda, Mass.).
For in vivo infarct size/ischemia-reperfusion studies, rats were anesthetized with pentobarbital sodium (50 mg/Kg) and heparin (1000 IU/Kg) and underwent 30 min of regional ischemia followed by 120 min of reperfusion. Human hydrophobic parstatin (1-26) fragment was administered intravenously over 1 min at one of three time points: 1) starting 15 min prior to ischemia, 2) 15 min after the onset of ischemia, or 3) 10 seconds after the onset of reperfusion in a separate series of experiments (n=6/group).
Ischemia was induced by placement of a ligature around the left main coronary artery which was threaded through a plastic snare to permit reversible occlusion of the coronary artery. Coronary occlusion was induced by clamping the snare onto the heart and reperfusion was achieved by releasing the snare. At the end of reperfusion, the coronary artery was re-occluded and the risk zone was delineated by perfusion 0.5% Evans' blue into the aortic cannula.
Hearts were sectioned and incubated in 1% triphenyltetrazolium chloride in phosphate buffer for 15 min to define white necrotic tissue when fixed in 10% formalin for 24 h. Area at risk (AAR) and infarct-to-risk rations were determined by computerized planimetry using J-Image v.i.6 software (NIH, Bethesda, Mass.). The principal endpoint of these studies was infarct size expressed as a percentage of the area at risk.

Where two headings read alike, the source gives them in different places.

With “TRARRPESKATNATLDPR (listed as Homo sapiens) [parstatin (24-41), 24-41 (18 amino acids) of human parstatin, hydrophilic fragment]”, the “DNA synthesis in HUVEC cells” value in series [1] is given as “did not cause any significant effect”. In addition, the HUVEC cell proliferation entry in series [2] is on record as “without effect”. For the same sequence, the “capillary-like network (total capillary tube length) in fibrin gels” value in series [3] is “did not affect”.

For “MGPRRLLLVAACFSLCGPLLSARTRA (listed as Homo sapiens) [parstatin (1-26)]”, in series [4], the “cGMP production in the ischemic zone vs non-ischemic zone” value is recorded as 2.2 fold, the “tissue accumulation of cGMP in the ischemic tissue compared to control” value worked out at 4.6 fold and the “tissue accumulation of cGMP in the ischemic tissue compared to sham” value came out at 10.9 fold. The “phosphorylation of Akt/Ser473” value in series [5] (1 μg/kg pre-ischemic, 5 min reperfusion, vs control rats) is listed as “increased phosphorylation”. The “endothelial NOS phosphorylation (Ser1177)” value in series [5] (1 μg/kg, 5 min reperfusion) is reported as “increased endothelial NOS phosphorylation”. Moreover, in series [5] (wortmannin), the “Ser1177 phosphorylation with wortmannin” value is given as “blocked”. Moreover, the “Akt phosphorylation with wortmannin co-treatment” value in series [5] (wortmannin 15 μg/kg) is “blocked”. Moreover, the “NO levels in non-ischemic tissue compared to control and sham rats” value in series [6] was “No differences”. Besides, in series [6] (120 min reperfusion), the “NO content in the ischemic tissue over control values” is reported as 1.4 fold and the “NO content in the ischemic tissue over sham treated values” was 2.0 fold. In addition, in series [7] (10 seconds after initiation of reperfusion), the “reduction in infarct size” value was determined as 62%. For the same sequence, the “reduction in infarct size” value in series [7] (15 min after the onset of ischemia) amounted to 73%. Further, the “infarct sparing effect with L-NMA” value in series [7] (1 μg/Kg, L-NMA 15 μg/Kg) was “abolished”. In addition, the “infarct size in the presence of pertussis toxin” value in series [7] (1 μg/Kg, pertussis toxin 25 μg/Kg 48 hours prior) is “unable to reduce infarct size”. For the same sequence, in series [7] (1 μg/Kg, wortmannin 15 μg/Kg), the “cardioprotective effects with wortmannin” value was “abrogated”. Moreover, the “reduction in infarct size with ODQ” value in series [7] (1 μg/kg, ODQ 1 mg/kg) was “abolished”. Also, the “reduction in infarct size compared with control” value in series [7] (10 μg/Kg IV 15 min prior to ischemia) was 78%. In addition, the infarct size in series [7] (10 μg/Kg IV 15 min prior to ischemia, 30 min ischemia, 120 min reperfusion) is 13±1 % of the area at risk. Moreover, in series [7] (5-HD 10 mg/Kg), the “cardioprotective effects with 5-HD” value is “blocked”. Further, the “cardioprotective effects with HMR 1098” value in series [7] (HMR 1098 6 mg/kg) is listed as “blocked”. Moreover, the cardioprotection with atractyloside result in series [7] (atractyloside 3 mg/Kg) is reported as “partial blockage”. Besides, in series [7] (glibenclamide 3 mg/kg), the “cardioprotective effect with glibenclamide” value is on record as “completely diminished”. Further, the “baseline hemodynamics (heart rate, blood pressures) between groups” value in series [7] (rat, in vivo) was “no significant differences”.

These data come from patent US9180163B2, “Parstatin peptides” (priority 2009, dated 2015).
